The values below come from patent EP4740946A1, “METHOD FOR TREATING PROSTATE CANCER” (Jiangsu Hengrui Pharmaceuticals Co., Ltd., priority 2023, dated 2025).

Holding throughout (type): in vivo, human
Data set [1] can be described thus: Phase I clinical study, clinical pharmacology: food effect study (fasting vs postprandial pharmacokinetics). Here is the method:
(§1) • Tablets were orally administered in preset dose group of 30 mg, 90 mg, 180 mg, 360 mg, 540 mg or 720 mg, with one treatment cycle every 28 days. Administration was continuous until disease progression or the occurrence of unacceptable toxicity. Tablets were orally administered once daily, within 30 minutes after breakfast each morning, for consecutive administration. If intensive PK blood sampling was scheduled on a given day, the subject was forbidden to drink water 1 h and fasted 4 h before and after drug administration.
There were a total of 9 patients in the food effect study.

Data set [2] can be described thus: Phase I clinical study, clinical safety (DLT, TEAEs, treatment-related AEs).
From the text: • Incidence of dose limiting toxicity (DLT) • MTD (if available) and RP2D;
(§2) • Incidence, severity (graded according to CTCAE v5.0), and correlation with the study drug of adverse events (AEs) and serious adverse events (SAEs), also including abnormalities in vital signs, electrocardiogram, and laboratory tests; • PK parameters of the compound of formula I after single/multiple administrations, including but not limited to: • single administration parameters: peak plasma concentration (Cmax), time to peak (Tmax), area under the concentration-time curve from time zero to the last detectable concentration time point t (AUC0-t), area under the concentration-time curve from time zero to infinity (AUC0-inf) (if applicable), half-life (t1/2) (if applicable), apparent volume of distribution (Vz/F) (if applicable), and apparent clearance (CL/F) (if applicable); • multiple administration parameters: steady-state peak concentration (Cmax, ss), time to peak (Tmax, ss), steady-state trough concentration (Cmin, ss), area under the steady-state plasma concentration-time curve (AUCss), and drug accumulation ratio (Rac). • Pharmacokinetic (PK) of midazolam: pharmacokinetic parameters of midazolam in patients after administration of a microdose of midazolam before (D-1) and after (D15) multiple oral administrations of the compound of formula I, including: Tmax, Cmax, AUC0-t, AUCO-∞, t1/2, CL/F and Vz/F. • Efficacy endpoints: objective response rate (ORR), disease control rate (DCR), duration of response (DoR), radiographic progression-free survival (rPFS), PSA response rate at week 12, proportions of subjects with a decrease in PSA of ≧50% and ≧30% from baseline throughout study treatment, time to PSA progression, and overall survival (OS).
as §1
A total of 26 tumour subjects were enrolled in this study, with 13 subjects in the dose escalation phase. There were 1, 4, 4, 3, and 1 subject(s) in 30 mg, 90 mg, 180 mg, 360 mg, and 540 mg dose groups, respectively. […] One subject was enrolled in the 540 mg dose group and remained in DLT observation, and no dose-limiting toxicity (DLT) was observed. There were 13 subjects in the dose expansion phase, and all were in the 180 mg dose group.

Data set [3] relates to PSA. Put plainly: Phase I clinical study, clinical effectiveness (PSA response).
From the text: as §2, §1
A total of 17 subjects in the study received at least one post-baseline PSA test, with 1, 4, 9, and 3 subjects in 30 mg, 90 mg, 180 mg, and 360 mg dose groups, respectively. 8 of 17 subjects evaluable for PSA response experienced a PSA decrease.

The mark [4] stands for this setting: 180 mg oral administration under fasting conditions, patients with mCRPC.
Where [5] appears, read: postprandial absorption compared with fasting state, food effect study.

Usually half-life stands for the time in which the quantity being followed falls by half. For `C[C@H]1CC2(CCN(c3ccc(C(=O)N4CCC(CN5CCN(c6cccc(N[C@H]7CCC(=O)NC7=O)c6)CC5)CC4)cc3F)CC2)CN1c1ccc(C#N)c(Cl)c1` [compound of formula I], in data set [1] (setting [4]), the “geometric mean (% geometric coefficient of variation) of apparent volume of distribution” value is 1260 (90.7) L, the “geometric mean (% geometric coefficient of variation) of clearance” value is 21.5 (83.4) L/h and the “median time to peak” value turned out to be 3 h. Besides, in data set [1] (male, human, plasma, 180 mg oral administration under fasting conditions, patients with mCRPC, food effect study (9 patients), read-out: mean half-life (± standard deviation) (converted)), the half-life is 40.8 ± 4.37 h. Further, in data set [1] (setting [5]), the “AUC, postprandial versus fasting state” value is given as 2.54 fold and the “Cmax, postprandial versus fasting state” value was determined as 3.06 fold. The “time to peak delayed (postprandial versus fasting)” value in data set [1] (postprandial compared with fasting state) turned out to be 3 h. In addition, in data set [1] (postprandial state), the “time to peak, postprandial” value is given as “about 6 h”. For the same molecule, in data set [2] (8 of 26 subjects), the “subjects who experienced AEs associated with formula I” value amounted to 30.8%. Further, in data set [2] (9 of 26 tumour subjects enrolled), the “subjects who experienced TEAEs” value came to 34.6%. The “dose-limiting toxicity (DLT)” value in data set [2] (dose escalation phase, 13 subjects, 30 mg, 90 mg, 180 mg, 360 mg and 540 mg dose groups, oral once daily) is “no DLT was observed”. The “grade 4/5 AE” value in data set [2] (during the study, 26 subjects) is “No grade 4/5 AE occurred”. The “subjects who experienced grade 3 TRAE” value in data set [2] (one of 26 subjects, decreased neutrophil count and decreased white blood cell count) turned out to be 3.8%. In addition, the “subjects who experienced grade 3 TEAEs” value in data set [2] (three of 26 subjects) turned out to be 11.5%. The “subjects who experienced a PSA decrease” value in data set [3] (180 mg dose group, 6 of the 9 subjects) is 66.7%. For the same molecule, in data set [3] (180 mg dose group, 9 subjects), the “subjects achieving PSA30 (a reduction in serum PSA level of ≧ 30% from baseline during treatment)” value was determined as 3 subjects and the “subjects achieving PSA90 (a reduction in serum PSA level of ≧ 90% from baseline during treatment)” value is reported as 1 subject. In data set [3] (of 17 subjects evaluable for PSA response, 30 mg, 90 mg, 180 mg and 360 mg dose groups), the “subjects who experienced a PSA decrease” value was determined as 8 subjects.
